{
  "source": "patent US20250345277A1",
  "about": "“Ionizable Liposome, Preparation Thereof, and Application Thereof in Gene Delivery” (MAXIRNA (ZHEJIANG) TECHNOLOGY CO. LTD., priority 2021, published 2025)",
  "key": {"[1]": {"test_system": "DC2.4 cells", "assay": "In vitro transfection of DC2.4 cells with EGFP mRNA LNP preparation (flow cytometry)", "assay_type": "cell-based, mouse", "details": "DC2.4 cells; for Cell Viability / Positive Rate (EGFP): EGFP mRNA LNP, 200 ng mRNA per well, flow cytometry; for Fluorescence Intensity: EGFP mRNA expression level, normalized based on the sample with the highest fluorescence intensity", "outline": "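DC2.4 is a mouse bone marrow-derived dendritic cell line, grown adherent at 37 °C, 5% CO2 and passaged with trypsin at 80-90% confluence. The EGFP mRNA LNP preparation was diluted in serum-free Opti-MEM to 1 μg/ml mRNA for transfection.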"}, "[2]": {"test_system": "PBMC cells", "assay": "In vitro transfection of PBMC cells with EGFP mRNA LNP preparation (flow cytometry)", "assay_type": "cell-based", "set-up": "Cell Viability: concentration or dose not given beside the values", "details": "PBMCs; for Cell Viability / Positive Rate (EGFP): LNP preparation added with ApoE4; for Fluorescence Intensity: with ApoE4, EGFP mRNA expression level normalized based on the sample with the highest fluorescence intensity", "source_text": "The description is based on peripheral blood mononuclear cells PBMC (Shanghai Oribiotech Co., Ltd.), human peripheral blood leukemia T cell Jurkat (ATCC), tumor infiltrating lymphocyte TIL (isolated from resected tumor tissue of a liver cancer patient, the preparation method refers to CN114763530A), mouse bone marrow-derived dendritic cells DC2.4 (Cell Bank of the Chinese Academy of Sciences), and Chinese hamster ovary cells CHO (ATCC) were used as verified cell lines for liposome transfection. PBMC, Jurkat, and TIL cells grew in suspension, while DC2.4 and CHO cells grew by adherent culture. All the operation steps of cell culture must strictly abide by the prescribed procedures, and sterile reagents is used to perform aseptic operations under a sterile workbench. The main steps are as follows: • 1) Cell recovery: the preserved cell cryopreservation solution was taken out of the −80° C. refrigerator, and was immediately put in a 37° C. water bath for rapid and continuous shaking, and was completely melted within one minute. Fresh medium was added to the 15 mL centrifuge tube in advance, and the cell solution was added to the centrifuge tube in a biological safety cabinet. A centrifuge tube of the same quality was taken and placed symmetrically in a centrifuge, centrifuged at a low speed at 1200 rpm for 5 min. After centrifugation, the supernatant was removed, and an appropriate amount of medium was slowly added along the tube wall. After the cells were evenly dispersed by blowing gently, the cell suspension was pipette and added to the culture bottle prepared in advance. The state and distribution of the cells in the early stage of recovery were observed under a microscope. The culture bottle was placed in a 5% CO2 incubator and incubated at 37° C., and the recovery time was recorded. • 2) Cell subculture: Under the microscope, if the cell density in the field of view reaches 80%-90%, the cells can be subcultured. Adherent cells need to be digested with trypsin. In order to avoid the residual serum in the culture medium to reduce the activity of trypsin, DPBS solution was added to wash once after removing the original culture medium. After remove the DPBS solution, trypsin was added to degrade the protein at the junction between cells. This separates the cells for further culture. The cells were gently shaked evenly and put into the incubator for digestion for 2 min. Immediately after the digestion was completed, an appropriate amount of medium was added to the original petri dish to terminate the digestion. Finally, the cells were carefully blowed off using a pipette and blowed until they are evenly dispersed, and then inoculated and subcultured at a certain ratio according to the experimental requirements.\n• 1) Coating antibodies: 6-well plates were pre-coated, CD3 and CD28 antibodies were taken out from the −20° C. refrigerator, and melted for later use. The above two antibodies were added into the DPBS solution at a concentration of 5 µg/mL, mixed well, added into a six-well plate at 1 mL/well, put in a 37° C. incubator, and waited 4 hours for later use. • 2) PBMC recovery: the frozen PBMC cells were taken out from the −80° C. refrigerator, put in a 37° C. water bath to quickly thaw the cells, added to the preheated medium after thawing, centrifuged at 1200 rpm for 5 min, the supernatant was discarded, and an appropriate amount of AIMN-V medium with 500 U/ml IL-2 was added to resuspend PBMC. • 3) the DPBS coated with the antibody was removed with a pipette, the cell suspension was transferred to a six-well plate pre-coated with the antibody at 4 mL per well, placed in a 5% CO2 incubator at 37° C. for 3-5 days for activation and culture. • 4) According to the experimental arrangement, PBMC cells were plated on a 24-well plate 30 minutes in advance on the day of cell transfection. […]"}},
  "data": [
    {"smiles": "CCCCCCCCCCCCCCCCC(O)CC(CCOCCOCCOCCN(CCOCCOCCOCCN(CC(O)CCCCCCCCCCCCCCCC)CC(O)CCCCCCCCCCCCCCCC)CCN1CCN(CCOCCOCCOCCN(CC(O)CCCCCCCCCCCCCCCC)CC(O)CCCCCCCCCCCCCCCC)CC1)CC(O)CCCCCCCCCCCCCCCC", "note": "[D-C18]", "values": [
      {"measurement": "Cell Viability", "setting": "[1]", "result": 81.5, "unit": "%"},
      {"measurement": "Positive Rate (EGFP)", "setting": "[1]", "result": 64.4, "unit": "%"},
      {"measurement": "Fluorescence Intensity", "setting": "[1]", "result": 0.45},
      {"measurement": "Cell Viability", "setting": "[2]", "result": 83.30, "unit": "%"},
      {"measurement": "Positive Rate (EGFP)", "setting": "[2]", "result": 64.40, "unit": "%"},
      {"measurement": "Fluorescence Intensity", "setting": "[2]", "result": 0.41}
    ]},
    {"smiles": "CCCCCCCCCCCCC(O)CN(CCN(CCN1CCN(C)CC1)CCN(CC(O)CCCCCCCCCCCC)CC(O)CCCCCCCCCCCC)CC(O)CCCCCCCCCCCC", "note": "(stereo not drawn) [E-C14]", "values": [
      {"measurement": "Cell Viability", "setting": "[1]", "result": ">99.0", "unit": "%"},
      {"measurement": "Positive Rate (EGFP)", "setting": "[1]", "result": 84.3, "unit": "%"},
      {"measurement": "Fluorescence Intensity", "setting": "[1]", "result": 0.45},
      {"measurement": "Cell Viability", "setting": "[2]", "result": 86.50, "unit": "%"},
      {"measurement": "Positive Rate (EGFP)", "setting": "[2]", "result": 64.60, "unit": "%"},
      {"measurement": "Fluorescence Intensity", "setting": "[2]", "result": 0.12}
    ]},
    {"smiles": "CCCCCCCCCCCCC(O)CN(CCOCCN(CCOCCN(CC(O)CCCCCCCCCCCC)CC(O)CCCCCCCCCCCC)CCN1CCN(C)CC1)CC(O)CCCCCCCCCCCC", "note": "(stereo not drawn) [F-C14]", "values": [
      {"measurement": "Cell Viability", "setting": "[1]", "result": 93.2, "unit": "%"},
      {"measurement": "Positive Rate (EGFP)", "setting": "[1]", "result": 73.5, "unit": "%"},
      {"measurement": "Fluorescence Intensity", "setting": "[1]", "result": 0.33},
      {"measurement": "Cell Viability", "setting": "[2]", "result": 83.20, "unit": "%"},
      {"measurement": "Positive Rate (EGFP)", "setting": "[2]", "result": 63.70, "unit": "%"},
      {"measurement": "Fluorescence Intensity", "setting": "[2]", "result": 0.16}
    ]},
    {"smiles": "CCCCCCCCCCCCC(O)CN(CCOCCOCCN(CCOCCOCCN(CC(O)CCCCCCCCCCCC)CC(O)CCCCCCCCCCCC)CCN1CCN(C)CC1)CC(O)CCCCCCCCCCCC", "note": "(stereo not drawn) [G-C14]", "values": [
      {"measurement": "Cell Viability", "setting": "[1]", "result": ">99.0", "unit": "%"},
      {"measurement": "Positive Rate (EGFP)", "setting": "[1]", "result": 67.5, "unit": "%"},
      {"measurement": "Fluorescence Intensity", "setting": "[1]", "result": 0.30},
      {"measurement": "Cell Viability", "setting": "[2]", "result": 79.40, "unit": "%"},
      {"measurement": "Positive Rate (EGFP)", "setting": "[2]", "result": 63.40, "unit": "%"},
      {"measurement": "Fluorescence Intensity", "setting": "[2]", "result": 0.1}
    ]},
    {"smiles": "CCCCCCCCCCCCC(O)CN(CCOCCOCCOCCN(CCOCCOCCOCCN(CC(O)CCCCCCCCCCCC)CC(O)CCCCCCCCCCCC)CCN1CCN(C)CC1)CC(O)CCCCCCCCCCCC", "note": "(stereo not drawn) [H-C14]", "values": [
      {"measurement": "Cell Viability", "setting": "[1]", "result": 91.7, "unit": "%"},
      {"measurement": "Positive Rate (EGFP)", "setting": "[1]", "result": 66.8, "unit": "%"},
      {"measurement": "Fluorescence Intensity", "setting": "[1]", "result": 0.52},
      {"measurement": "Cell Viability", "setting": "[2]", "result": 81.70, "unit": "%"},
      {"measurement": "Positive Rate (EGFP)", "setting": "[2]", "result": 62.10, "unit": "%"},
      {"measurement": "Fluorescence Intensity", "setting": "[2]", "result": 0.07}
    ]}
  ]
}
